Results as given in ChEMBL document CHEMBL4715710, “Discovery, synthesis, and structure-activity relationships of 20S-dammar-24-en-2α,3β,12β,20-tetrol (GP) derivatives as a new class of AMPKα2β1γ1 activators” (Bioorg Med Chem, 2016).
Activity calls are given as the source filed them. The calls are words filed in the database; no cut-off is given here.

Legend:
Homo sapiens = species: Homo sapiens; assay: Activation of human recombinant AMPK alpha2/beta1/gamma1 using substrate-1 peptide as substrate incubated for 45 mins in presence of ATP by HTRF assay relative to negative control
[1] = Activation of human recombinant AMPK alpha2/beta1/gamma1 using substrate-1 peptide as substrate incubated for 45 mins in presence of ATP by HTRF assay
L6 = assay: Effect on mitochondrial membrane potential in rat L6 cells at 5 to 40 uM measured after 1 hr by JC-1 staining based assay; assay type: functional, cell-based; settings: dose 5-40 µM
HepG2 [2] = assay: Activation of AMPK in human HepG2 cells assessed as induction of ACC phosphorylation at Ser79 residue measured after 1 hr by Western blot analysis; assay type: cell-based; settings: filed as activator, dose 2.5-20 µM
[3] = Inhibition of gluconeogenesis in C57/BL6 mouse primary hepatocytes at 20 uM measured after 6 hrs relative to control; assay type: functional; settings: C57/BL6, Hepatocyte
Hepatocyte = assay: Cytotoxicity against C57/BL6 mouse primary hepatocytes at 5 to 40 uM measured after 24 hrs by sulforhodamine B assay; assay type: cell-based; settings: dose 5-40 µM
HepG2 [4] = assay: Activation of AMPK in human HepG2 cells assessed as induction of AMPK phosphorylation of Thr-172 residue at alpha subunit measured after 1 hr by Western blot analysis; assay type: cell-based; settings: filed as activator, dose 2.5-20 µM
Syrian golden hamster [5] = assay: Antidyslipidemic activity against HFHC diet-induced hyperlipidemia in Golden Syrian hamster model assessed as decrease in ratio of LDL-C to HDL-C at 100 mg/kg, po bid via gavage administered for 2 weeks and measured after 28 days by automated chemistry analyzer; assay type: functional, organism-based; settings: Mesocricetus auratus
Syrian golden hamster [6] = assay: Antidyslipidemic activity against HFHC diet-induced hyperlipidemia in Golden Syrian hamster model assessed as decrease in high density lipoprotein cholesterol at 100 mg/kg, po bid via gavage administered for 2 weeks and measured after 28 days by automated chemistry analyzer; assay type: functional, organism-based; settings: Mesocricetus auratus
Syrian golden hamster [7] = assay: Antidyslipidemic activity against HFHC diet-induced hyperlipidemia in Golden Syrian hamster model assessed as decrease in triglycerides at 100 mg/kg, po bid via gavage administered for 2 weeks and measured after 28 days by automated chemistry analyzer; assay type: functional, organism-based; settings: Mesocricetus auratus
HepG2 [8] = assay: Activation of AMPK in human HepG2 cells assessed as induction of AMPK phosphorylation at alpha subunit at 20 uM measured after 1 hr by Western blot analysis; assay type: cell-based; settings: filed as activator
Syrian golden hamster [9] = assay: Antidyslipidemic activity against HFHC diet-induced hyperlipidemia in Golden Syrian hamster model assessed as decrease in low density lipoprotein cholesterol at 100 mg/kg, po bid via gavage administered for 2 weeks and measured after 28 days by automated chemistry analyzer; assay type: functional, organism-based; settings: Mesocricetus auratus
HepG2 [10] = assay: Activation of AMPK in human HepG2 cells assessed as induction of ACC phosphorylation at Ser79 residue at 20 uM measured after 1 hr by Western blot analysis; assay type: cell-based; settings: filed as activator
Syrian golden hamster [11] = assay: Antidyslipidemic activity against HFHC diet-induced hyperlipidemia in Golden Syrian hamster model assessed as decrease in total cholesterol level at 100 mg/kg, po bid via gavage administered for 2 weeks and measured after 28 days by automated chemistry analyzer; assay type: functional, organism-based; settings: Mesocricetus auratus
[12] = Inhibition of gluconeogenesis in C57/BL6 mouse primary hepatocytes at 10 to 20 uM measured after 6 hrs relative to control; assay type: functional, Hepatocyte; settings: dose 10-20 µM
HepG2 [13] = assay: Activation of AMPK in human HepG2 cells assessed as induction of ACC phosphorylation at Ser79 residue at 2.5 to 20 uM measured after 1 hr by Western blot analysis; assay type: cell-based; settings: filed as activator, dose 2.5-20 µM
HepG2 [14] = assay: Activation of AMPK in human HepG2 cells assessed as induction of AMPK phosphorylation at alpha subunit at 2.5 to 20 uM measured after 1 hr by Western blot analysis; assay type: cell-based; settings: filed as activator, dose 2.5-20 µM

fold change (FC) (Homo sapiens; filed as activator) | EC50 ([1]; read-out: EC50) [µM] | Compound | also measured
2.8 | 1.1 | COc1ccc(CNCCC[C@](C)(O)[C@H]2CC[C@]3(C)[C@@H]2[C@H](O)C[C@@H]2[C@@]4(C)C[C@@H](O)[C@H](O)C(C)(C)[C@@H]4CC[C@]23C)cc1OC | 
2.9 | 1.9 | CCCNCCC[C@](C)(O)[C@H]1CC[C@]2(C)[C@@H]1[C@H](O)C[C@@H]1[C@@]3(C)C[C@@H](O)[C@H](O)C(C)(C)[C@@H]3CC[C@]12C | 
3.2 | 1.6 | Nc1ncnc2c1ncn2[C@@H]1O[C@H](COP(=O)(O)O)[C@@H](O)[C@H]1O [ADENOSINE PHOSPHATE] | 
2.3 | 1.8 | CCNCCC[C@](C)(O)[C@H]1CC[C@]2(C)[C@@H]1[C@H](O)C[C@@H]1[C@@]3(C)C[C@@H](O)[C@H](O)C(C)(C)[C@@H]3CC[C@]12C | 
2.8 | 1.4 | C[C@H](NCCC[C@](C)(O)[C@H]1CC[C@]2(C)[C@@H]1[C@H](O)C[C@@H]1[C@@]3(C)C[C@@H](O)[C@H](O)C(C)(C)[C@@H]3CC[C@]12C)c1ccccc1 | 
3.6 | 8.8 | CC(C)(O)[C@@H]1CC[C@](C)([C@H]2CC[C@]3(C)[C@@H]2[C@H](O)C[C@@H]2[C@@]4(C)C[C@@H](O)[C@H](O)C(C)(C)[C@@H]4CC[C@]23C)O1 | 
2.6 | 1.9 | CNCCC[C@](C)(O)[C@H]1CC[C@]2(C)[C@@H]1[C@H](O)C[C@@H]1[C@@]3(C)C[C@@H](O)[C@H](O)C(C)(C)[C@@H]3CC[C@]12C | 
2 | 1.2 | CC(C)NCCC[C@](C)(O)[C@H]1CC[C@]2(C)[C@@H]1[C@H](O)C[C@@H]1[C@@]3(C)C[C@@H](O)[C@H](O)C(C)(C)[C@@H]3CC[C@]12C | 
2.7 | 1 | COc1ccc(CNCCC[C@](C)(O)[C@H]2CC[C@]3(C)[C@@H]2[C@H](O)C[C@@H]2[C@@]4(C)C[C@@H](O)[C@H](O)C(C)(C)[C@@H]4CC[C@]23C)cc1 | 
 |  | CC(C)CCC[C@](C)(O)[C@H]1CC[C@]2(C)[C@@H]1[C@H](O)C[C@@H]1[C@@]3(C)C[C@@H](O)[C@H](O)C(C)(C)[C@@H]3CC[C@]12C | fold change (FC) (Homo sapiens): < 1.5; EC50 [1]: Not Active
2 | 1.2 | CC1(C)[C@@H](O)[C@H](O)C[C@]2(C)[C@H]3C[C@@H](O)[C@@H]4[C@@H]([C@@](C)(O)CCCNCCc5ccccc5)CC[C@@]4(C)[C@]3(C)CC[C@@H]12 | 
2.7 | 0.8 | CC1(C)[C@@H](O)[C@H](O)C[C@]2(C)[C@H]3C[C@@H](O)[C@@H]4[C@@H]([C@@](C)(O)CCCNCCCc5ccccc5)CC[C@@]4(C)[C@]3(C)CC[C@@H]12 | Activity (L6): Active; Activity (HepG2 [2]): Dose-dependent effect; inhibition at 20 µM [3]: 80%; Activity (Hepatocyte): Non-Toxic; Activity (HepG2 [4]): Dose-dependent effect
2.4 | 5.1 | CC(C)=CCC[C@](C)(O)[C@H]1CC[C@]2(C)[C@@H]1[C@H](O)C[C@@H]1[C@@]3(C)C[C@@H](O)[C@H](O)C(C)(C)[C@@H]3CC[C@]12C | Activity (Syrian golden hamster [5]): Active; inhibition at 20 µM [3]: 25%; Activity (Syrian golden hamster [6]): inactive; Activity (Syrian golden hamster [7]): inactive; Activity (HepG2 [8]): Active; Activity (Syrian golden hamster [9]): Active; Activity (HepG2 [10]): Active; Activity (Syrian golden hamster [11]): Active
3.4 | 5.1 | CC1(C)[C@@H](O)[C@H](O)C[C@]2(C)[C@H]3C[C@@H](O)[C@@H]4[C@@H]([C@@](C)(O)CCCNCc5ccccc5)CC[C@@]4(C)[C@]3(C)CC[C@@H]12 | 
2.8 | 1 | CC1(C)[C@@H](O)[C@H](O)C[C@]2(C)[C@H]3C[C@@H](O)[C@@H]4[C@@H]([C@@](C)(O)CCCNCc5cccnc5)CC[C@@]4(C)[C@]3(C)CC[C@@H]12 | inhibition (INH) [12]: 20%; Activity (L6): Active; Activity (HepG2 [13]): Active; Activity (HepG2 [14]): Active
3.2 | 0.3 | CC1(C)[C@@H](O)[C@H](O)C[C@]2(C)[C@H]3C[C@@H](O)[C@@H]4[C@@H]([C@@](C)(O)CCCNCc5ccc(F)cc5)CC[C@@]4(C)[C@]3(C)CC[C@@H]12 | Activity (L6): Active; Activity (HepG2 [2]): Dose-dependent effect; inhibition at 20 µM [3]: 80%; Activity (Hepatocyte): Non-Toxic; Activity (HepG2 [4]): Dose-dependent effect
2.1 | 4.9 | CC(C)(C)NCCC[C@](C)(O)[C@H]1CC[C@]2(C)[C@@H]1[C@H](O)C[C@@H]1[C@@]3(C)C[C@@H](O)[C@H](O)C(C)(C)[C@@H]3CC[C@]12C | 
2.9 | 3.8 | COc1ccc(NCCC[C@](C)(O)[C@H]2CC[C@]3(C)[C@@H]2[C@H](O)C[C@@H]2[C@@]4(C)C[C@@H](O)[C@H](O)C(C)(C)[C@@H]4CC[C@]23C)cc1 | 
4.1 | 1.2 | CC1(C)[C@@H](O)[C@H](O)C[C@]2(C)[C@H]3C[C@@H](O)[C@@H]4[C@@H]([C@@](C)(O)CCCNCc5ccncc5)CC[C@@]4(C)[C@]3(C)CC[C@@H]12 | 
3 | 0.8 | CC1(C)[C@@H](O)[C@H](O)C[C@]2(C)[C@H]3C[C@@H](O)[C@@H]4[C@@H]([C@@](C)(O)CCCNCc5ccccn5)CC[C@@]4(C)[C@]3(C)CC[C@@H]12 | inhibition (INH) [12]: 20%; Activity (L6): Active; Activity (HepG2 [13]): Active; Activity (HepG2 [14]): Active
3.9 | 5.5 | CC(C)(O)[C@H]1CC[C@](C)([C@H]2CC[C@]3(C)[C@@H]2[C@H](O)C[C@@H]2[C@@]4(C)C[C@@H](O)[C@H](O)C(C)(C)[C@@H]4CC[C@]23C)O1 | 
4.2 | 0.0096 | N#Cc1c(O)c2c(-c3ccc(-c4ccccc4O)cc3)csc2[nH]c1=O | 
